Test results reported in article PMC4533973, “Synthesis and Evaluation of Chloramphenicol Homodimers: Molecular Target, Antimicrobial Activity, and Toxicity against Human Cells” (PLoS ONE, 2015).
Like-named read-outs stand apart in the source and are kept apart here.

Legend:
[1] = test system: S. aureus (WT); experiment: Antibacterial activity (growth inhibition, EC50); type: cell-based; settings: Staphylococcus aureus
Source text: (§1) A.S. Mankin (University of Illinois). E. coli ΔtolC strain BL21 DE3 with impaired AcrAB-TolC, a proton-dependent MDR efflux pump causing multidrug resistance, was offered by Dr D.N. Wilson (University of Munich) and included in our study to test if this mechanism of resistance affects the efficacy of CAM dimers. […] I. Spiliopoulou (National Reference Laboratory for Staphylococci, School of Medicine, University of Patras, Greece). Finally, E. coli strain Rosetta(DE3)pLysS, containing a chloramphenicol resistant gene in the pLysS plasmid, was purchased from Novagen and was also included in our study. Briefly, S. aureus or E. coli cells (200 μl of a 0.700 OD560 preculture) containing wild-type or mutant ribosomes were added in 3.8 ml of LB (Luria-Bertani) medium and grown at 37°C in the presence or absence of CAM or CAM dimers until the optical density of the control culture (grown in the absence of drug) reached the value 0.700 at 560 nm. For E. faecium and P. aeruginosa cultures, TSB (Tryptic Soy Broth) medium was used, instead of LB medium, in order to achieve exponential doubling times between 25 and 35 minutes. From dose-response curves, the half-maximal effective concentration (EC50) for each compound and strain was estimated. EC50 represents the molar concentration of a compound that produces 50% of the maximal possible effect. The EC50 values were mathematically determined by non linear regression fitting of the observed culture optical-density values, expressed as the percentage of 0.700 (y), into Hill Equation, y=min+max−min/1+(x/EC50)^−n where min and max are the lowest and highest observed values of the culture optical density, respectively, x the concentration of the tested compound, and n the Hill coefficient that represents the largest absolute value of the curve slope. EC50 is equal to the x- value of the sigmoid’s midpoint. Fitting was performed using the Four Parameter Logistic Curve of the SigmaPlot Program Version 11.0 (Systat Software, Inc) for Exact Graphs and Data Analysis.

[2] = test system: MRSA (GRE2272); experiment: Antibacterial activity (growth inhibition, EC50); type: cell-based; settings: Staphylococcus aureus
Source text: as §1

[3] = test system: E. faecium (GRE5152); experiment: Antibacterial activity (growth inhibition, EC50); type: cell-based; settings: Enterococcus faecium
Source text: as §1

[4] = test system: MRSA (GRE2691); experiment: Antibacterial activity (growth inhibition, EC50); type: cell-based; settings: Staphylococcus aureus
Source text: as §1

[5] = test system: P. aeruginosa (GRE5288); experiment: Antibacterial activity (growth inhibition, EC50); type: cell-based, Pseudomonas aeruginosa
Source text: as §1

[6] = test system: Jurkat cells; experiment: Toxicity assays in Jurkat cells (cell counting, necrosis and apoptosis by flow cytometry); type: cell-based, Human; settings: 60 μM; flow cytometry
Experimental: Fig 8 Toxicity assays in Jurkat cells. Jurkat cells were adjusted to 1×10^9 cells/L in RPMI-1640 medium containing 1% Penicillin/Streptomycin and 10% fetal bovine serum. The cells were grown in triplicate in the presence or absence of compound 5 at the indicated concentrations for 4 days at 37°C, under a humidified 5% CO2 atmosphere. CAM was used as a reference compound. For cell necrosis and apoptosis assays, samples (10^6 cells) were collected daily and determined by flow cytometry. Apoptotic and necrotic cells were expressed as a percentage of total cells.
Human leukemic cell lines, HS-Sultan (Burkitt’s lymphoma), Jurkat (T-cell acute lymphoblastic leukemia), and U937 (histiocytic lymphoma), were adjusted to 1×10^9 cells/l in RPMI-1640 medium supplemented with 10% fetal bovine serum and 1% penicillin/streptomycin. The cells were grown in triplicate in the absence (control cultures) or presence of CAM or CAM dimers for 4 days at 37°C, under a humidified 5% CO2 atmosphere. The medium was changed daily; CAM or CAM dimer addition was repeated after medium change. Aliquots were collected daily and counted in a CELL-DYN 3700 Hematology Analyzer. For cell necrosis and apoptosis assays, samples (10^6 cells) were collected and determined using the Annexin V-PE Apoptosis Detection Kit I (BD Pharmingen) for flow cytometry, according to the manufacturers’ instructions. Flow cytometry data were analyzed using the FlowJo flow cytometry analysis software. Necrotic and apoptotic cells were expressed as a percentage of total cells.

[7] = test system: post-translocation ribosomal complex (complex C) derived from E. coli; design: method as in Xaplanteri et al., [6]; settings: ref Xaplanteri et al., [6], cited from earlier work
[8] = test system: Escherichia coli ribosomes; design: method as in earlier work; settings: equilibrium dialysis, cited from earlier work
[9] = target: ribosome; design: method as in PMID 14654696; settings: read-out: K i, cryptic low-affinity site (entrance to the exit tunnel); cited from earlier work
[10] = test system: E. coli (ΔtolC); experiment: Antibacterial activity (growth inhibition, EC50); type: cell-based, Escherichia coli
Source text: as §1

[11] = test system: E. coli Rosetta(DE3)pLysS; experiment: Antibacterial activity (growth inhibition, EC50); type: cell-based, Escherichia coli; settings: Escherichia coli
Source text: as §1

[12] = test system: E. coli (A2058G); experiment: Antibacterial activity (growth inhibition, EC50); type: cell-based, Escherichia coli; settings: Escherichia coli
Source text: as §1

[13] = test system: E. coli (A2503C); experiment: Antibacterial activity (growth inhibition, EC50); type: cell-based, Escherichia coli; settings: Escherichia coli
Source text: as §1

[14] = test system: E. coli (WT); experiment: Antibacterial activity (growth inhibition, EC50); type: cell-based, Escherichia coli
Source text: as §1

SMILES: O=C(N[C@H](CO)[C@H](O)c1ccc([N+](=O)[O-])cc1)C(Cl)Cl [CAM, chloramphenicol]
- EC50 [1]: 2.9 ± 0.1 µM
- EC50 [2]: 8.4 ± 0.7 µM
- EC50 [3]: 3.5 ± 0.3 µM
- EC50 [4]: 12.8 ± 1.5 µM
- fold higher EC50 value than wild-type E. coli ([5]; P. aeruginosa versus wild-type E. coli): 6 fold
- EC50 ([5]; Pseudomonas aeruginosa): 25.6 ± 2.2 µM
- apoptosis, expressed as a percentage of total cells [6]: did not induce any necrosis/apoptosis effect
- necrosis [6]: did not induce any necrosis/apoptosis effect
- Ki ([7]; encounter complex CI): 3.1 ± 0.3 µM
- Ki ([7]; overall inhibition constant): 0.88 ± 0.07 µM
- k off [7]: 0.0165 ± 0.00067 s⁻¹
- Kd ([8]; read-out: K D, high affinity site): 2 µM
- Kd ([8]; read-out: K D, low affinity site): 200 µM
- Ki [9]: ~300 µM
- fold more sensitive than wild-type E. coli ([10]; E. coli BL21 DE3 (ΔtolC) versus wild-type E. coli): approximately 2 fold
- EC50 ([10]; Escherichia coli, BL21-DE3): 2.2 ± 0.1 µM
- EC50 [11]: 115 ± 16.3 µM
- EC50 [12]: 15.9 ± 1.1 µM
- EC50 [13]: 24.9 ± 2.5 µM
- EC50 ([14]; Escherichia coli, LB medium, 37°C, OD560): 4.4 ± 0.2 µM
- EC50(cell growth)/IC50(puro) ([14]; wild-type E. coli, IC50(puro) calculated from Ki* at 2 mM puromycin): 0.84 ± 0.07
